Reference: ChEMBL document CHEMBL3352087 (J Med Chem, 2014)
pIC50: −log10 of the molar value. ≈ marks a conversion by molar mass, not a printed value.

How the values were obtained:
[1] = tested on: MDR1 (human); test: (§1) Apparent permeability from apical to basolateral side in pig LLC-PK1 cells transfected with human MDR1; assay type: ADME, cell-based, Sus scrofa; details: LLC-PK1
[2] = molecular target: T1, Beta-secretase 1 (Homo sapiens, UniProt P56817); test: Inhibition of BACE1 in HEK293 cells expressing swedish double mutant APP assessed as amyloid beta (1 to 40) peptide level after 7 hrs by HTRF assay; assay type: cell-based
T1 sequence (P56817 whole entry): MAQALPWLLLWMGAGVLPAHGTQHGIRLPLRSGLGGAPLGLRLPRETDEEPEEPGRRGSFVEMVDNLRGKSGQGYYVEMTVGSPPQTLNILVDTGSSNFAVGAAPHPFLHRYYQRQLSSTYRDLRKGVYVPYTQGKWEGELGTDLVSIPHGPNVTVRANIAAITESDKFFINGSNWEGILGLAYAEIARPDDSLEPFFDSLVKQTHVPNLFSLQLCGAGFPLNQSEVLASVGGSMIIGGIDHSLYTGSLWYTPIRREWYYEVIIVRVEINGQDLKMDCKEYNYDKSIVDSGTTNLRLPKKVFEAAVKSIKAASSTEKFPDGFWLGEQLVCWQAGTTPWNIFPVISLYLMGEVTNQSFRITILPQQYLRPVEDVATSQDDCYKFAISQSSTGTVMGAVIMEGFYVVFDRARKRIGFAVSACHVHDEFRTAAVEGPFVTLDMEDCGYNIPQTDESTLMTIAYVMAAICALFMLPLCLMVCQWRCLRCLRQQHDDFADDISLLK

[3] = molecular target: T1, Beta-secretase 1; test: Inhibition of purified recombinant human BACE1 expressed in CHO cells assessed as uncleaved biotinylated sAPP after 2 hrs by HTRF assay
[4] = tested on: MDR1 (human); test: (§2) Efflux ratio of permeability from basolateral to apical side to apical to basolateral side in pig LLC-PK1 cells transfected with human MDR1 at 1 uM; assay type: ADME, cell-based, Sus scrofa; details: LLC-PK1
[5] = tested on: CHO; test: Ratio of IC50 for cathepsin D purified from human spleen to IC50 for purified recombinant human BACE1 expressed in CHO cells
[6] = Ratio of free drug level in brain to plasma of CD-1 mouse brain at 3 mg/kg, iv and 10 mg/kg, po measured at 4 hrs post dose; assay type: ADME, organism-based; details: read-out: BPR
[7] = Ratio of free drug level in brain to plasma of CD-1 mouse at 3 mg/kg, iv and 10 mg/kg, po measured at 1 hr post dose; assay type: ADME, organism-based; details: read-out: BPR
[8] = Systemic clearance in CD-1 mouse at 3 mg/kg, iv and 10 mg/kg, po; assay type: ADME, organism-based; details: in vivo, read-out: CLH
[9] = tested on: Mus musculus; test: Unbound clearance in CD-1 mouse at 3 mg/kg, iv and 10 mg/kg, po; assay type: ADME, organism-based; details: in vivo
[10] = Ratio of free drug level in brain of CD-1 mouse at 3 mg/kg, iv and 10 mg/kg, po measured at 4 hrs post dose to IC50 for BACE1 in HEK293 cells expressing swedish double mutant APP; assay type: ADME, organism-based; details: hek293, 4 h
[11] = tested on: Brain; test: Free drug level in CD-1 mouse brain at 3 mg/kg, iv and 10 mg/kg, po measured at 1 hr post dose; assay type: ADME, organism-based; details: in vivo
[12] = Ratio of free drug level in brain of CD-1 mouse at 3 mg/kg, iv and 10 mg/kg, po measured at 1 hr post dose to IC50 for BACE1 in HEK293 cells expressing swedish double mutant APP; assay type: ADME, organism-based; details: hek293, 1 h
[13] = tested on: Brain; test: Free drug level in CD-1 mouse brain at 3 mg/kg, iv and 10 mg/kg, po measured at 4 hrs post dose; assay type: ADME, organism-based; details: in vivo
[14] = tested on: Plasma; test: Free plasma concentration in CD-1 mouse at 3 mg/kg, iv and 10 mg/kg, po measured at 4 hrs post dose; assay type: ADME, organism-based; details: in vivo
[15] = tested on: Plasma; test: Free plasma concentration in CD-1 mouse at 3 mg/kg, iv and 10 mg/kg, po measured at 1 hr post dose; assay type: ADME, organism-based; details: in vivo
[16] = Fraction unbound in CD-1 mouse plasma; assay type: ADME, cell-free
[17] = Fraction unbound in CD-1 mouse brain; assay type: ADME, tissue-based
[18] = Drug level in Sprague-Dawley rat CSF at 60 mg/kg, po measured at 3 hrs post dose; assay type: ADME, organism-based, Cerebrospinal fluid; set-up: dose 60 mg/kg, route oral; details: read-out: Drug uptake
[19] = Ratio of free drug level in brain of Sprague-Dawley rat at 60 mg/kg, po measured at 5 hrs post dose to IC50 for BACE1 in HEK293 cells expressing swedish double mutant APP; assay type: ADME, organism-based; set-up: dose 60 mg/kg, route oral; details: in vivo
[20] = Solubility of the compound at pH 7.2; assay type: physicochemical; details: buffer
[21] = tested on: LLC-PK1; test: as §1; assay type: ADME, cell-based, Sus scrofa; details: llc-pk1
[22] = tested on: Rattus norvegicus; test: Reduction in amyloid beta(1 to 40) in Sprague-Dawley rat CSF at 60 mg/kg, po measured at 3 hrs post dose; assay type: functional; set-up: scale not given: the % may be the effect or the level left
[23] = tested on: LLC-PK1; test: as §2; assay type: ADME, cell-based, Sus scrofa; details: llc-pk1, 1 µM, 1 µM
[24] = tested on: Plasma; test: Free plasma concentration in Sprague-Dawley rat at 60 mg/kg, po measured at 5 hrs post dose; assay type: ADME, organism-based; set-up: dose 60 mg/kg, route oral; details: in vivo
[25] = Ratio of free drug level in brain of Sprague-Dawley rat at 60 mg/kg, po measured at 3 hrs post dose to IC50 for BACE1 in HEK293 cells expressing swedish double mutant APP; assay type: ADME, organism-based; set-up: dose 60 mg/kg, route oral; details: in vivo
[26] = tested on: Rattus norvegicus; test: Reduction in amyloid beta(1 to 40) in Sprague-Dawley rat CSF at 60 mg/kg, po measured at 5 hrs post dose; assay type: functional; set-up: scale not given: the % may be the effect or the level left
[27] = tested on: Plasma; test: Free plasma concentration in Sprague-Dawley rat at 60 mg/kg, po measured at 3 hrs post dose; assay type: ADME, organism-based; set-up: dose 60 mg/kg, route oral; details: in vivo
[28] = tested on: Brain; test: Free drug level in Sprague-Dawley rat brain at 60 mg/kg, po measured at 5 hrs post dose; assay type: ADME, organism-based; set-up: dose 60 mg/kg, route oral; details: in vivo
[29] = tested on: Brain; test: Free drug level in Sprague-Dawley rat brain at 60 mg/kg, po measured at 3 hrs post dose; assay type: ADME, organism-based; set-up: dose 60 mg/kg, route oral; details: in vivo
[30] = Ratio of free drug level in brain to plasma of Sprague-Dawley rat at 60 mg/kg, po measured at 5 hrs post dose; assay type: ADME, organism-based; set-up: dose 60 mg/kg, route oral; details: brain and plasma, read-out: BPR
[31] = Fraction unbound in Sprague-Dawley rat brain; assay type: ADME, tissue-based
[32] = Ratio of free drug level in brain to plasma of Sprague-Dawley rat at 60 mg/kg, po measured at 3 hrs post dose; assay type: ADME, organism-based; set-up: dose 60 mg/kg, route oral; details: brain and plasma, read-out: BPR
[33] = Drug level in Sprague-Dawley rat CSF at 60 mg/kg, po measured at 5 hrs post dose; assay type: ADME, organism-based, Cerebrospinal fluid; set-up: dose 60 mg/kg, route oral; details: read-out: Drug uptake

| Compound | Papp A→B [1] [×10⁻⁶ cm/s] | pIC50 [2] | pIC50 [3] | efflux ratio at 1 µM [4] | Ratio IC50 [5] | further results |
| --- | --- | --- | --- | --- | --- | --- |
| CN1C(=O)[C@]2(N=C1N)c1cc(-c3cccnc3F)ccc1O[C@@]1(C)CCCO[C@@H]12 (relative stereo) | 5.3 | 8.24 | 7.89 | 110 | 510 | – |
| NC1=N[C@@]2(CO1)c1cc(-c3cccnc3F)ccc1O[C@@H]1CCCO[C@H]12 | – | 6.12 | 5.96 | – | – | – |
| C[C@]12CCCO[C@@H]1[C@]1(CSC(N)=N1)c1cc(-c3cccc(C#N)c3)ccc1O2 (relative stereo) | 14 | 6.85 | 7.39 | 1.8 | 680 | – |
| C[C@]12CCCO[C@@H]1[C@]1(CSC(N)=N1)c1cc(-c3cncnc3)ccc1O2 (relative stereo) | 29 | 7.09 | 7.25 | 3.1 | 1100 | – |
| C[C@]12CCCO[C@@H]1[C@]1(COC(N)=N1)c1cc(-c3cccnc3F)ccc1O2 (relative stereo) | 29 | 7.22 | 7.12 | 6.2 | 430 | Kp uu at 4 h [6]: 0.16; Kp uu at 1 h [7]: 0.16; clearance [8]: 150 mL/min/kg; CL free [9]: 1300 mL/min/kg; Ratio [10]: 0.018; Drug uptake [11]: 6 nM; Ratio [12]: 0.1; Drug uptake [13]: 1.1 nM; Cp(f) [14]: 6.8 nM; Cp(f) [15]: 37 nM; fraction unbound [16]: 0.11; fraction unbound [17]: 0.04 |
| CN1C(=O)[C@]2(N=C1N)c1cc(-c3cccnc3F)ccc1O[C@]1(C)CCCO[C@H]12 (relative stereo) | 6 | 7.43 | 7.59 | 31 | 69 | – |
| C[C@]12CCCO[C@@H]1[C@]1(COC(N)=N1)c1cc(-c3cc(F)cc(Cl)c3)ccc1O2 (relative stereo) | 5.6 | 7.03 | 7.26 | 1.7 | 530 | – |
| C[C@]12CCCO[C@@H]1[C@]1(COC(N)=N1)c1cc(-c3cccc(C#N)c3)ccc1O2 | – | 7.41 | 7.35 | – | – | concentration at 3 h [18]: 150 nM; Ratio [19]: 2.1; solubility [20]: 57 µg/mL (≈ 152 µM); Papp [21]: 19 ×10⁻⁶ cm/s; Activity [22]: 63%; Ratio [23]: 3.4; Cp(f) [24]: 250 nM; Ratio [25]: 2.3; Activity [26]: 69%; Cp(f) [27]: 270 nM; Drug uptake(free) [28]: 80 nM; Drug uptake(free) [29]: 88 nM; Kp uu at 5 h [30]: 0.32; fraction unbound [31]: 0.014; Kp uu at 3 h [32]: 0.33; concentration at 5 h [33]: 230 nM |
| C[C@]12CCCO[C@@H]1[C@]1(COC(N)=N1)c1cc(-c3cccc(C#N)c3)ccc1O2 (racemic) | 30 | 7.00 | 7.01 | 3.2 | – | Kp uu at 4 h [6]: 0.21; Kp uu at 1 h [7]: 0.24; clearance [8]: 34 mL/min/kg; CL free [9]: 870 mL/min/kg; Ratio [10]: 0.075; Drug uptake [11]: 13 nM; Ratio [12]: 0.13; Drug uptake [13]: 7.5 nM; Cp(f) [14]: 35 nM; Cp(f) [15]: 54 nM; fraction unbound [16]: 0.039; fraction unbound [17]: 0.013 |
| C[C@]12CCCO[C@@H]1[C@]1(CSC(N)=N1)c1cc(-c3cc(F)cc(Cl)c3)ccc1O2 (relative stereo) | 1.4 | 6.96 | 7.39 | 1.2 | 830 | – |
| C[C@]12CCCO[C@@H]1[C@]1(CSC(N)=N1)c1cc(-c3cccnc3F)ccc1O2 (relative stereo) | 31 | 7.07 | 7.57 | 2 | 890 | – |
